Experimental findings from US7704995B2 (Exelixis, Inc., priority 2003, dated 2010) are described below.

In one experiment the target is T1, Chk1 (Homo sapiens, UniProt O14757).
T1 construct: purchased Upstate Biotechnology
T1 sequence (O14757 1-476): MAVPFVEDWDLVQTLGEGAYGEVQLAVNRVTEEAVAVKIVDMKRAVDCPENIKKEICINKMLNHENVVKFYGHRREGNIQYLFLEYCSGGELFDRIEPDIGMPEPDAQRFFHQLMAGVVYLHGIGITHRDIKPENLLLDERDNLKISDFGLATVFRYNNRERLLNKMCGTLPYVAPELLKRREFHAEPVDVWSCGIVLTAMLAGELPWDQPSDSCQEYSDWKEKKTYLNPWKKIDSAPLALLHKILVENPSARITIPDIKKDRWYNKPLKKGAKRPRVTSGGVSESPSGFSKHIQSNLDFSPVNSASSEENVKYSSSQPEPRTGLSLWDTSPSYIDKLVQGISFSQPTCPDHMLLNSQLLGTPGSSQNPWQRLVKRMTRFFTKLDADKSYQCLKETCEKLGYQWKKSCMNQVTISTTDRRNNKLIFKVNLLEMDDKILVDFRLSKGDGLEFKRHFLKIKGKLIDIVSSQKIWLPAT
Nature of the experiment: Chk1 kinase assay: incorporation of γ-33P ATP into immobilized myelin basic protein. It is filed as biochemical. The conditions noted are these: Table 11, Chk1 only; class symbols A-D; read-out: Chk1 IC50. The method in brief: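 Plates coated with MBP, then kinase reactions in Hepes pH 7.6 buffer with 10 mM MgCl2 and 1% DMSO were started by adding unlabeled plus γ-33P ATP (10 μM for Chk1 at 10 nM enzyme; 30 μM for Chk2 at 20 nM enzyme). After 1 h at room temperature, plates were washed and counted.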
As to `Nc1ncc(-c2cccc(S(=O)(=O)N[C@@H]3CCc4ccccc43)c2)nc1C(=O)N[C@H]1CCNC1` [Example 812, 3-amino-6-(3-{[(1R)-2,3-dihydro-1H-inden-1-ylamino]sulfonyl}phenyl)-N-[(3S)-pyrrolidin-3-yl]pyrazine-2-carboxamide], the half-maximal inhibitory concentration (IC50) – broadly, the concentration at which inhibition is half-maximal – was in the range of 50 to 1000 nM.

Turning to `Nc1ncc(-c2cccc(CNCc3ccc(F)cc3F)c2)nc1C(=O)N[C@H]1CCCNC1` [Example 999, 3-amino-6-[3-({[(2,4-difluorophenyl)methyl]amino}methyl)phenyl]-N-[(3S)-piperidin-3-yl]pyrazine-2-carboxamide], the 50% inhibitory concentration (IC50) is < 50 nM.

For the molecule `Nc1ncc(-c2cccc(C(=O)NCc3c(F)cccc3F)c2)nc1-c1nc([C@H]2CCCNC2)n[nH]1` [Example 827, 3-(5-amino-6-{3-[(3S)-piperidin-3-yl]-1H-1,2,4-triazol-5-yl}pyrazin-2-yl)-N-[(2,6-difluorophenyl)methyl]benzamide], the IC50 lay in the range of 50 to 1000 nM.

The same experiment, now with this note: Table 11; Chk1 only; read-out: Chk1 IC50.
For the molecule `Nc1ncc(-c2cccc(C(=O)N[C@H]3CCc4ccccc43)c2)nc1-c1nnc([C@H]2CCCNC2)[nH]1` [Example 755, 3-(5-amino-6-{5-[(3S)-piperidin-3-yl]-4H-1,2,4-triazol-3-yl}pyrazin-2-yl)-N-[(1S)-2,3-dihydro-1H-inden-1-yl]benzamide], the 50% inhibitory concentration (IC50) was < 50 nM.

`CNCCNC(=O)c1nc(-c2cccc(CN[C@H]3CCc4ccccc43)c2)cnc1N` [Example 559, 3-amino-6-(3-{[(1S)-2,3-dihydro-1H-inden-1-ylamino]methyl}phenyl)-N-[2-(methylamino)ethyl]pyrazine-2-carboxamide]: the IC50 was < 50 nM.

Take `Nc1ncc(-c2cccc(CN[C@H]3CCc4ccccc43)c2)nc1-c1nc([C@@H]2CCCNC2)n[nH]1` [Example 705, 5-(3-{[(1S)-2,3-dihydro-1H-inden-1-ylamino]methyl}phenyl)-3-{3-[(3R)-piperidin-3-yl]-1H-1,2,4-triazol-5-yl}pyrazin-2-amine]: the IC50 is < 50 nM.

Turning to `N=C(NN1CCCCCC1)c1nc(-c2cccc(C(=O)NCc3ccccc3)c2)cnc1N` [Example 623, 3-{5-amino-6-[(azepan-1-ylamino)(imino)methyl]pyrazin-2-yl}-N-(phenylmethyl)benzamide], the half-inhibitory concentration (IC50) lay in the range of 1000 to 10000 nM.

Regarding `N=C(N)c1nc(-c2cccc(C(=O)N[C@H]3CCc4ccccc43)c2)cnc1N` [Example 774, 3-{5-amino-6-[amino(imino)methyl]pyrazin-2-yl}-N-[(1S)-2,3-dihydro-1H-inden-1-yl]benzamide], the IC50 is 1000 to 10000 nM.

With `CNC(=O)c1cc(-c2cccc(CNC3CCc4c(Cl)cccc43)c2)cnc1N` (centres unmarked) [Example 522, 2-amino-5-(3-{[(4-chloro-2,3-dihydro-1H-inden-1-yl)amino]methyl}phenyl)-N-methylpyridine-3-carboxamide], the IC50 was 50 to 1000 nM.

`N=C(NNc1nc2ccccc2s1)c1nc(-c2cccc(C(=O)NCc3ccccc3)c2)cnc1N` [Example 669, 3-{5-amino-6-[[2-(1,3-benzothiazol-2-yl)hydrazino](imino)methyl]pyrazin-2-yl}-N-(phenylmethyl)benzamide]: the half-maximal inhibitory concentration (IC50) is ≥ 10000 nM.

`CNC(=O)c1nc(-c2cccc(CNC3CC(C)c4c(F)ccc(F)c43)c2)cnc1N` (centres unmarked) [Example 459, 3-amino-6-(3-{[(4,7-difluoro-3-methyl-2,3-dihydro-1H-inden-1-yl)amino]methyl}phenyl)-N-methylpyrazine-2-carboxamide]: the IC50 lay within 50 to 1000 nM.

As to `Nc1ncc(-c2cccc(C(=O)NCc3ccccc3)c2)nc1C(=O)N[C@H](Cc1ccc(O)cc1)C(=O)O` [Example 611, N-{[3-amino-6-(3-{[(phenylmethyl)amino]carbonyl}phenyl)pyrazin-2-yl]carbonyl}-D-tyrosine], the half-maximal inhibitory concentration (IC50) is ≥ 10000 nM.

Turning to `N=C(NNc1nccc(C(F)(F)F)n1)c1nc(-c2cccc(C(=O)NCc3ccccc3)c2)cnc1N` [Example 668, 3-[5-amino-6-(imino{2-[4-(trifluoromethyl)pyrimidin-2-yl]hydrazino}methyl)pyrazin-2-yl]-N-(phenylmethyl)benzamide], the IC50 is 1000 to 10000 nM.

On to `Nc1ncc(-c2cccc(C(=O)NCc3ccccc3)c2)nc1C(=O)c1ccc(-c2ccccc2)cc1` [Example 579, 3-[5-amino-6-(biphenyl-4-ylcarbonyl)pyrazin-2-yl]-N-(phenylmethyl)benzamide], for which the 50% inhibitory concentration (IC50) was ≥ 10000 nM.

The same experiment, now with this note: read-out: Chk1 IC50.
For `CNC(=O)c1nc(-c2ccc(N(C)C)cc2)cnc1N` [Example 76, 3-amino-6-[4-(dimethylamino)phenyl]-N-methylpyrazine-2-carboxamide], the IC50 is 1000 to 10000 nM.

In the case of `CCNC(=O)c1nc(-c2cccc(C(=O)NCc3ccccc3)c2)cnc1N` [Example 272, 3-amino-N-ethyl-6-(3-{[(phenylmethyl)amino]carbonyl}phenyl)pyrazine-2-carboxamide], the IC50 lay within 1000 to 10000 nM.

For `NC(=O)c1nc(-c2cccc(F)c2)cnc1N` [Example 19, 3-amino-6-(3-fluorophenyl)pyrazine-2-carboxamide], the half-maximal inhibitory concentration (IC50) was ≥ 10000 nM.

`CNC(=O)c1nc(-c2cccc(CSCc3ccccc3)c2)cnc1N` [Example 312, 3-amino-N-methyl-6-(3-{[(phenylmethyl)thio]methyl}phenyl)pyrazine-2-carboxamide]: the IC50 was in the range of 50 to 1000 nM.

Take `CNC(=O)c1nc(-c2cccc(CNCc3ccc(-c4ccccc4)cc3)c2)cnc1N` [Example 382, 3-amino-6-(3-{[(biphenyl-4-ylmethyl)amino]methyl}phenyl)-N-methylpyrazine-2-carboxamide]: the IC50 is 50 to 1000 nM.

As to `CNC(=O)c1nc(-c2cccc(C(=O)NCc3ccccc3-c3cccnc3)c2)cnc1N` [Example 391, 3-amino-N-methyl-6-[3-({[(2-pyridin-3-ylphenyl)methyl]amino}carbonyl)phenyl]pyrazine-2-carboxamide], the IC50 was in the range of 50 to 1000 nM.

As for `CNC(=O)c1nc(-c2cccc(NC(=O)OCc3ccccc3)c2)cnc1N` [Example 318, phenylmethyl (3-{5-amino-6-[(methylamino)carbonyl]pyrazin-2-yl}phenyl)carbamate], the IC50 fell in the range of 50 to 1000 nM.

On to `CNC(=O)c1nc(-c2cccc(C(=O)N[C@@H](C)c3ccccc3)c2)cnc1N` [Example 145, 3-amino-N-methyl-6-[3-({[(1S)-1-phenylethyl]amino}carbonyl)phenyl]pyrazine-2-carboxamide], for which the half-maximal inhibitory concentration (IC50) lay in the range of 50 to 1000 nM.

In the case of `CNC(=O)c1nc(-c2cccc(NC(=O)Cc3ccc(C(F)(F)F)cc3)c2)cnc1N` [Example 211, 3-amino-N-methyl-6-[3-({[4-(trifluoromethyl)phenyl]acetyl}amino)phenyl]pyrazine-2-carboxamide], the IC50 is 50 to 1000 nM.

Consider `CNC(=O)c1nc(-c2cncnc2)cnc1N` [Example 233, 3-amino-N-methyl-6-pyrimidin-5-ylpyrazine-2-carboxamide], for which the half-inhibitory concentration (IC50) is ≥ 10000 nM.

For `CNC(=O)c1nc(-c2cccc(CN3Cc4ccccc4C3)c2)cnc1N` [Example 416, 3-amino-6-[3-(1,3-dihydro-2H-isoindol-2-ylmethyl)phenyl]-N-methylpyrazine-2-carboxamide], the IC50 was 50 to 1000 nM.

`CNC(=O)c1nc(-c2cccc(CNCc3ccccc3-c3ccccc3)c2)cnc1N` [Example 383, 3-amino-6-(3-{[(biphenyl-2-ylmethyl)amino]methyl}phenyl)-N-methylpyrazine-2-carboxamide]: the IC50 was in the range of 50 to 1000 nM.
